{
  "source": "paper PMC5336358",
  "about": "“Origin and evolution of transporter substrate specificity within the NPF family” (eLife, 2017)",
  "key": {"[1]": {"system": "T1, CpGTRL2 (Cp17.190)", "T1 construct": "full-length untagged, codon-optimized cRNA in Xenopus laevis oocytes; primer encodes N-term MEMDGKE", "experiment": "TEVC currents in Xenopus oocytes, Michaelis-Menten fit", "type": "cell-based, Carica papaya", "conditions": "pH 5, -60 mV membrane potential"}, "[2]": {"biological_target": "T2, BrGTR1 (BrF01711) (Brassica rapa, UniProt A0A8D9DAH7)", "T2 construct": "gene BRAPAZ1V2_A06P20680.2; full-length untagged, codon-optimized cRNA in Xenopus laevis oocytes; primer encodes N-term MERKPFE", "T2 sequence (A0A8D9DAH7 1-615)": "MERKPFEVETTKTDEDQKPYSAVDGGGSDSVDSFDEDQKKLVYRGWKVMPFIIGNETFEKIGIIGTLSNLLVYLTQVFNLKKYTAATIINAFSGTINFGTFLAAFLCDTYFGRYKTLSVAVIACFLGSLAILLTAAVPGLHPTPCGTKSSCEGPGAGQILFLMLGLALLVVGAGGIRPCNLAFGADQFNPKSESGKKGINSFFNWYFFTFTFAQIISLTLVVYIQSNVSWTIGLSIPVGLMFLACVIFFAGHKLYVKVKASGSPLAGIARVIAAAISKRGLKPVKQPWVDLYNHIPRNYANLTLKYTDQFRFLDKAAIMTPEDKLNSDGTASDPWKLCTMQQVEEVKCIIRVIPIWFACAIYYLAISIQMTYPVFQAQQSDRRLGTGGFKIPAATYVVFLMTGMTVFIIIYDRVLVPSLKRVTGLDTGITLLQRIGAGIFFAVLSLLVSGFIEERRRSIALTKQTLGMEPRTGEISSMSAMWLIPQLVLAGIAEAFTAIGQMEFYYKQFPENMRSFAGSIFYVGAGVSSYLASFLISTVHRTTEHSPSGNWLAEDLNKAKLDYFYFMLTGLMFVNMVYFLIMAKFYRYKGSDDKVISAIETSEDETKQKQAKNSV", "experiment": "oocyte uptake, LC-MS; TEVC currents", "type": "cell-based", "conditions": "[…] substrate, pH […] min"}, "[3]": {"biological_target": "T3, Me14G074000 (Manihot esculenta, UniProt A0A2C9ULI5)", "T3 construct": "gene MANES_14G074000v8; full-length untagged, codon-optimized cRNA in Xenopus laevis oocytes; primer encodes N-term MATGETI", "T3 sequence (A0A2C9ULI5 entry or part of it)": "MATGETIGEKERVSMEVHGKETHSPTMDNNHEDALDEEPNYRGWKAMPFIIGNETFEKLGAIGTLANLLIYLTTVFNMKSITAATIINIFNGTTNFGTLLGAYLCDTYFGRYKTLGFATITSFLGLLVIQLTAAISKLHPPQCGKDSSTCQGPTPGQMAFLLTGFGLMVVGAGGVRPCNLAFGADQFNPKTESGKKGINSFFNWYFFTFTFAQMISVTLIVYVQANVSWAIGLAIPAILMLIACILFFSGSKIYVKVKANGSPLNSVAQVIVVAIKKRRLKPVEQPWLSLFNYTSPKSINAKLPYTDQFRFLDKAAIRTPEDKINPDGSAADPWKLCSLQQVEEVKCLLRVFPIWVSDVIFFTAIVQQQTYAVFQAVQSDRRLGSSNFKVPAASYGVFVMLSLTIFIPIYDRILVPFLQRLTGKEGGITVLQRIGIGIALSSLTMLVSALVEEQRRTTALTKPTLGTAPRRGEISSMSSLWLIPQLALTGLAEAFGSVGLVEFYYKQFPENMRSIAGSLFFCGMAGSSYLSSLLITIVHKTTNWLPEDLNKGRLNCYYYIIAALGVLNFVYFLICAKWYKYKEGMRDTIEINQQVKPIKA", "experiment": "oocyte uptake, LC-MS", "type": "cell-based", "conditions": "0.2 mM substrate, pH 5, 60 min"}, "[4]": {"biological_target": "T4, Me15G176100 (Manihot esculenta, UniProt A0A2C9UH66)", "T4 construct": "gene MANES_15G175484v8; full-length untagged, codon-optimized cRNA in Xenopus laevis oocytes; primer encodes N-term MEDKEEKS", "T4 sequence (A0A2C9UH66 entry or part of it)": "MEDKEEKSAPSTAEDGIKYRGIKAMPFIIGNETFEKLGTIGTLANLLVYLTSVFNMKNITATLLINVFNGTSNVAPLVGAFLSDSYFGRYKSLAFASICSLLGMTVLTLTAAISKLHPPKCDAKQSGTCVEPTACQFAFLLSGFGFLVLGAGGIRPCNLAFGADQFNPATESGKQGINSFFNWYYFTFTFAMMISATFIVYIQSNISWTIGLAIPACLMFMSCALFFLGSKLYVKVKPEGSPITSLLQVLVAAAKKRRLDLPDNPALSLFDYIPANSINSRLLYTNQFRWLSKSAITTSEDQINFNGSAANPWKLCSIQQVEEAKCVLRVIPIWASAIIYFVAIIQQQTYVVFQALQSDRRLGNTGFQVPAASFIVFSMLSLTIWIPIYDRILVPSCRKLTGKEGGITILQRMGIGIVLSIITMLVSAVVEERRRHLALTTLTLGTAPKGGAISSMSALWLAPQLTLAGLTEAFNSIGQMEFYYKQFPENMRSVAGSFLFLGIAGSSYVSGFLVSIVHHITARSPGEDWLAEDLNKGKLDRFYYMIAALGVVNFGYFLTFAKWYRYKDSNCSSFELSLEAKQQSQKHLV", "experiment": "oocyte uptake, LC-MS", "type": "cell-based", "conditions": "0.2 mM substrate, pH 5, 60 min"}, "[5]": {"biological_target": "T5, GTR3 (NPF2.9, At1g18880) (Arabidopsis thaliana, UniProt Q9M9V7)", "T5 construct": "full-length untagged, cRNA in Xenopus laevis oocytes", "T5 sequence (Q9M9V7 1-587)": "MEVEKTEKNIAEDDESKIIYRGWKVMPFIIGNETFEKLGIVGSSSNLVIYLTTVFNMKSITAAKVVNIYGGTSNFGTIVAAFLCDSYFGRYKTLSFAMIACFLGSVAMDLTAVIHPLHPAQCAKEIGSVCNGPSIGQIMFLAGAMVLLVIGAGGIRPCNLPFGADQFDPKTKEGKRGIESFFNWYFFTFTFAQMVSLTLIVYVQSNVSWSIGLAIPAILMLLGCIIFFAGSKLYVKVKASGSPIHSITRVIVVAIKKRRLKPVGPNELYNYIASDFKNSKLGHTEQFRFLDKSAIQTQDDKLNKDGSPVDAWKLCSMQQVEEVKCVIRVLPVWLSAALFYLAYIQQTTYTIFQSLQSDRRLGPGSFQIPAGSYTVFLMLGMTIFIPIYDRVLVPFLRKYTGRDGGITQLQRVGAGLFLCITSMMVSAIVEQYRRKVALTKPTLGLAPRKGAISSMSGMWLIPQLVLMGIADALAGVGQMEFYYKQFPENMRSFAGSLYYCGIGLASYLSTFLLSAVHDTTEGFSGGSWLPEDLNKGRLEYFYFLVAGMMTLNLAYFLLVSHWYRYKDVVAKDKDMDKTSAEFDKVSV", "experiment": "TEVC currents in Xenopus oocytes, Michaelis-Menten fit", "type": "cell-based", "conditions": "pH 5, -60 mV membrane potential"}, "[6]": {"biological_target": "T6, GTR1 (AtGTR1, NPF2.10) (Arabidopsis thaliana, UniProt Q944G5)", "T6 construct": "full-length untagged, cRNA in Xenopus laevis oocytes", "T6 sequence (Q944G5 1-636)": "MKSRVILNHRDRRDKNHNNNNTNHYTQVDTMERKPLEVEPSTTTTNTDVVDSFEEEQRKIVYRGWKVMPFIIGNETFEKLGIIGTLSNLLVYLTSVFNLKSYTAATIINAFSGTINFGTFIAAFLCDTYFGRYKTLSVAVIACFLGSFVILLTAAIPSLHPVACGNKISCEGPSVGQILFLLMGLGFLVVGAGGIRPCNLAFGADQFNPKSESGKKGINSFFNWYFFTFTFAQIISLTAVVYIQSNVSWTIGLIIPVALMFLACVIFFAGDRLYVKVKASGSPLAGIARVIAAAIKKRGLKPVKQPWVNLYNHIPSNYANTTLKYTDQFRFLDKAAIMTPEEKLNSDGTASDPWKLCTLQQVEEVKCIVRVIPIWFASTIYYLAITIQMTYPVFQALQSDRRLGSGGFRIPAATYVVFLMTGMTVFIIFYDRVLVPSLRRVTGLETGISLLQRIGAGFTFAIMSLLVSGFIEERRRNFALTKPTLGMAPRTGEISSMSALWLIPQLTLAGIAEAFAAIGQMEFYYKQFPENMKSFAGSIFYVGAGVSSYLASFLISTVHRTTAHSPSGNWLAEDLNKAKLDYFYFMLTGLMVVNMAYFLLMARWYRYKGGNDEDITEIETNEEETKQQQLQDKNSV", "experiment": "TEVC currents in Xenopus oocytes, Michaelis-Menten fit", "type": "cell-based", "conditions": "pH 5, -60 mV membrane potential"}, "[7]": {"biological_target": "T7, BrGTR3 (BrH02396) (Brassica rapa, UniProt A0A397YP93)", "T7 construct": "gene BRARA_H02396; full-length untagged, codon-optimized cRNA in Xenopus laevis oocytes; primer encodes N-term MEVEKTQE", "T7 sequence (A0A397YP93 1-591)": "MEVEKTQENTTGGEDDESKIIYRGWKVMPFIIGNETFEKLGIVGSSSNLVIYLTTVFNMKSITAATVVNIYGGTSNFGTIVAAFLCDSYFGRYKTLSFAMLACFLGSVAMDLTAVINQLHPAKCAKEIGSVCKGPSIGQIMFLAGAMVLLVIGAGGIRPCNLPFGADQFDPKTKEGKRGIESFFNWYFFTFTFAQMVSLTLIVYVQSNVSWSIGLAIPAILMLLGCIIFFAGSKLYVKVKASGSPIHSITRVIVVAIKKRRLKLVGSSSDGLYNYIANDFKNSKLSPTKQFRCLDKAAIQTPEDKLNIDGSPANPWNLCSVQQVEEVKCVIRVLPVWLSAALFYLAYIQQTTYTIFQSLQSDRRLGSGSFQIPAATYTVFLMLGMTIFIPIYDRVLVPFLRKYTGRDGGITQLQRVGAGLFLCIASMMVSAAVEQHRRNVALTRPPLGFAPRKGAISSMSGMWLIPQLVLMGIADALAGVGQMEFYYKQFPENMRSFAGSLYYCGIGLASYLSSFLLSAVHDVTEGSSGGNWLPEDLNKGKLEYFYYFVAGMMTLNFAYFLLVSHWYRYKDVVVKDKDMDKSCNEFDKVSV", "experiment": "oocyte uptake, LC-MS; TEVC currents", "type": "cell-based", "conditions": "[…] substrate, pH […] min"}, "[8]": {"biological_target": "T8, GTR2 (AtGTR2, NPF2.11) (Arabidopsis thaliana, UniProt Q9LV10)", "T8 construct": "full-length untagged, cRNA in Xenopus laevis oocytes", "T8 sequence (Q9LV10 1-616)": "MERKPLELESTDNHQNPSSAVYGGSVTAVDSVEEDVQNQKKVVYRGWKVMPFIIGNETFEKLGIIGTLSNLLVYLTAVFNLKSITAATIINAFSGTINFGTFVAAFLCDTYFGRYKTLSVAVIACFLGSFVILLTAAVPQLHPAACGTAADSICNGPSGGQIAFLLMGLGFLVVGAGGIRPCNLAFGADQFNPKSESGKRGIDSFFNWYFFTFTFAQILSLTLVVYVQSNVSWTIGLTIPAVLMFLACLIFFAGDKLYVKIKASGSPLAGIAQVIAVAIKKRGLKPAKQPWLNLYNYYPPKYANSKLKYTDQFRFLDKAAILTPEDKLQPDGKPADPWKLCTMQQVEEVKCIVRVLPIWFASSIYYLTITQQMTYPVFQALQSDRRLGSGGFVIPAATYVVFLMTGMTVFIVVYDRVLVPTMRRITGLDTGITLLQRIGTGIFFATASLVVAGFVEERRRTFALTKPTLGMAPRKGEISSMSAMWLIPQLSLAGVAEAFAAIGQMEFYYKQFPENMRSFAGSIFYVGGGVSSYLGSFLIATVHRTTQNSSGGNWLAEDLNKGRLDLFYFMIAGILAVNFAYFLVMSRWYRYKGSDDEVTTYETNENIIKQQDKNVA", "experiment": "TEVC currents in Xenopus oocytes, Michaelis-Menten fit", "type": "cell-based", "conditions": "pH 5, -60 mV membrane potential"}, "[9]": {"substrate": "N#C[C@H](O[C@@H]1O[C@H](CO)[C@@H](O)[C@H](O)[C@H]1O)c1ccccc1", "experiment": "TEVC currents in Xenopus oocytes, Michaelis-Menten fit", "type": "cell-based, Manihot esculenta", "conditions": "pH 5, -60 mV membrane potential"}, "[10]": {"substrate": "CC(C)(C#N)O[C@@H]1O[C@H](CO)[C@@H](O)[C@H](O)[C@H]1O", "experiment": "TEVC currents in Xenopus oocytes, Michaelis-Menten fit", "type": "cell-based, Manihot esculenta", "conditions": "pH 5, -60 mV membrane potential"}},
  "data": [
    {"molecule": "CSCCCC/C(=N/OS(=O)(=O)O)S[C@@H]1O[C@H](CO)[C@@H](O)[C@H](O)[C@H]1O", "note": "[4MTB, 4-methylthiobutyl glucosinolate]", "values": [
      {"measurement": "Km", "setting": "[1]", "result": "85 ± 12", "unit": "µM"},
      {"measurement": "oocyte uptake, LC-MS; TEVC currents", "setting": "[2]", "result": "BrGTR1 ortholog (BrF01711) transported 4MTB and I3M with similar efficiency"},
      {"measurement": "oocyte uptake, LC-MS", "setting": "[3]", "result": "Me14G074000 from cassava over-accumulated both 4MTB and I3M relative to external media"}
    ]},
    {"molecule": "N#C[C@H](O[C@@H]1O[C@H](CO)[C@@H](O)[C@H](O)[C@H]1O)c1ccccc1", "note": "[prunasin]", "values": [
      {"measurement": "oocyte uptake, LC-MS", "setting": "[3]", "result": "Me14G074000 from cassava accumulated prunasin, but not linamarin, to levels equivalent to media"},
      {"measurement": "oocyte uptake, LC-MS", "setting": "[4]", "result": "Uptake of prunasin was detected in oocytes expressing Me15G176100"}
    ]},
    {"molecule": "O=S(=O)(O)O/N=C(/Cc1c[nH]c2ccccc12)S[C@@H]1O[C@H](CO)[C@@H](O)[C@H](O)[C@H]1O", "note": "[I3M, indol-3-yl-methyl glucosinolate]", "values": [
      {"measurement": "Km", "setting": "[5]", "result": "< 25", "unit": "µM"},
      {"measurement": "Km", "setting": "[6]", "result": "< 25", "unit": "µM"},
      {"measurement": "oocyte uptake, LC-MS; TEVC currents", "setting": "[2]", "result": "BrGTR1 ortholog (BrF01711) transported 4MTB and I3M with similar efficiency"},
      {"measurement": "oocyte uptake, LC-MS; TEVC currents", "setting": "[7]", "result": "strong preference for I3M by the tested BrGTR3 ortholog (BrH02396)"},
      {"measurement": "Km", "setting": "[8]", "result": "< 25", "unit": "µM"}
    ]},
    {"molecule": "MeCGTR1 (Me15G180400) (Manihot esculenta) (protein, full-length untagged, codon-optimized cRNA in Xenopus laevis oocytes (pNB1u); primer encodes N-term MENGNDH) MENGNDHAQDQQKSIEKDEEPVINYRGIKAMPFIIGNETFEKLGTVGSSTNLVVYLNTVFNLKSVTATTLVNIFNGTTNLAPLLGAFLCDTYFGRYKTLGFASVASFLGMSALALTAAVPTLHPPKCVGKESSQCVGPSIWQLAFLLCGFGLIAIGAGGIRPCNLAFGAEQFNPNTESGKRGMSSFFNWYYFTYTFAVMVSVTGIVYVQSDVSWAIGLAIPAFLMFLSCAVFFIGTKIYVIVKPEGSPITSVVQVLVVSVKKRGLKLPQNPAVSLFNYVPAKSINSRLSHTEQFSFLDKAAIVTEKDEINLDGSAANPWRLCSIQQVEEVKCMVRIIPIWASAIIYHVPLIQQQTYAVLQALQLDRRLGTGSFEIPAATFIIFTMLALTIWIPIYDRILVPFLQRLTGKEGGFTLLQRMGIGILLSVLCMFVSGLVESHRRDIALSKPTLGISPKGGAVSSMTWLWLVPQLALAGLSEGFNYVSQIEFYYKQFPENMRSIAGSSFFAGLALANFLSGLLVSTIHKITSATKSGDWLSEDLNKGKLDHFYYVIGVLGTVNMAYFLLCAKWYRYKVREDDGSVEMSNKSSVKHHV", "values": [
      {"measurement": "Km", "setting": "[9]", "result": "80 ± 7", "unit": "µM"},
      {"measurement": "Km", "setting": "[10]", "result": "262 ± 15", "unit": "µM"}
    ]}
  ]
}
